{"source": "patent US20090220448A1", "about": "“HAIR CARE COMPOSITIONS AND METHODS FOR INCREASING HAIR DIAMETER AND FOR IMMEDIATE FULLER/THICKER HAIR APPEARANCE” (priority 2008, published 2009)", "test_system": "Primary human dermal papilla cells", "test": "Synergy study: survival of metabolically stressed dermal papilla cells (ATP, Cell Titer Glo)", "assay_type": "cell-based", "details": "0.05%, 48 hours metabolic stress in reduced media, control 100% water", "protocol": "The dermal papilla, in normal human hair, is the control center for hair diameter. Increasing survival of dermal papilla cells in situ leads to increased hair diameter. Accordingly, an increase in survival of dermal papilla cells correlates with an increase in hair diameter.\nPrimary human dermal papilla cells were metabolically stressed for 48 hours in reduced standard tissue culture media. During this period of stress the cells were treated with the mixtures or individual ingredients below. After 48 hr the metabolic activity of the cells was measured by the amount of ATP using the Cell Titer Glo™ kit (Promega).", "data": [{"smiles": "Cn1c(=O)c2c(ncn2C)n(C)c1=O", "note": "[Caffeine]", "values": [{"measurement": "Survival rate: % Change from Control", "value": "+41%"}]}]}
